Patent US20090123474A1, “COMBINATION OF ANGIOPOIETIN-2 ANTAGONIST AND OF VEGF-A, KDR AND/OR FLTL ANTAGONIST FOR TREATING CANCER” (ASTRAZENECA AB, priority 2005, published 2009)

Columns and labels:
Assay type in all cases: in vivo
[1] = tested on: A431 human tumour xenografts; test: A431 xenograft efficacy study (Study A); conditions: 3.19.3 10 mg/kg 2×wk i.p., VTKI 3 mg/kg/day p.o.
Experimental: (§1) The anti-tumor activity of monoclonal antibody 3.19.3 in combination with the VTKI 4-(4-fluoro-2-methylindol-5-yloxy)-6-methoxy-7-(3-piperidinopropoxy)quinazoline was evaluated in a xenograft model of human skin epidermoid carcinoma (Study A) and in a model of colorectal cancer (Study B) by using the A431 and Colo205 cell lines respectively.
(§2) A431 and Colo205 cells were cultured in flasks as routine until the cells reached sub-confluence. Immunodeficient 6-8 week old female mice (Ncr/nu/nu) were used. The cells were harvested and suspended in Matrigel. A cell suspension containing 1 to 5×10^6 cells was injected subcutaneously into the flank of the mice. The mice were randomized into different groups, each containing 10-15 mice. When the tumour volume reached 200 mm^3, the mice were randomized in each groups and the treatments were initiated. mAb 3.19.3 10 mg/kg in saline was injected intraperitoneally, twice per week for 2 weeks. 4-(4-fluoro-2-methylindol-5-yloxy)-6-methoxy-7-(3-piperidinopropoxy)quinazoline was treated peroral daily at doses ranging from 1.5 to 6 mg/kg in water containing 1% Tween80. The dimensions of each tumor were measured twice per week. The volume of the tumor was calculated as: Volume=Length×(Width)^2×0.5 (cm^3).

[2] = tested on: human Colo205 colon tumour xenografts; test: Colo205 xenograft efficacy study (Study B); conditions: 3.19.3 10 mg/kg 2×wk i.p., VTKI 6 mg/kg/day p.o.
Experimental: as §1, §2

[3] = tested on: human HT29 colon tumour xenografts; test: HT29 xenograft efficacy study; conditions: AZD2171 1.5 mg/kg/day p.o. d 0-27, 3.19.3 10 mg/kg i.p. day 0, 3, 7, 10, 14, 17, 21 and 24
Experimental: The efficacy of mAb 3.19.3 in combination with AZD2171 was evaluated in human HT29 xenografts. Briefly, 5×10^6 HT29 tumour cells in 0.1 ml of serum free Roswell Park Memorial Institute (RPMI)-1640 medium were injected subcutaneously into the flanks of 60 athymic (nu/nu genotype) mice. When tumours reached a volume of 200 to 400 mm^3 (9-10 days), mice were randomized into groups (8 per group) and treatment started (day 0).
The control group (Group 1) received a daily oral (p.o.) administration of vehicle only for 28 consecutive days (day 0-27). Group 2 treatment consisted of a daily p.o. administration of AZD2171 alone at 1.5 mg/kg/administration for 28 consecutive days (day 0-27). AZD2171 was prepared as a suspension in 1% polysorbate 80 (i.e. a 1% (v/v) solution of polyoxyethylene (20) sorbitan mono-oleate in deionised water). […]
Tumour volumes (mm^3) were assessed at least twice weekly by bilateral Vernier caliper measurement and, taking length to be the longest diameter across the tumor and width the corresponding perpendicular, calculated using the formula (π/6)×(length×width)×√ (length×width). Growth inhibition from the start of treatment was assessed by comparison of the differences in tumor volume between control and treated groups. […] For all mice, the tumours were excised and weights recorded upon termination of the study.

[4] = tested on: human LoVo colon tumour xenografts; conditions: 3.19.3 10 mg/kg 2×wk i.p., Zactima 50 mg/kg/day p.o.
Experimental: The anti-tumor activity of monoclonal antibody 3.19.3 was evaluated in the LoVo xenograft model of colorectal cancer. Briefly, LoVo cells were cultured in flasks as routine until the cells reached sub-confluence. Immunodeficient 8 week old male NCr nude mice were used. Cell suspensions containing 3×10^6 cells were injected subcutaneously into the right flank of the mice, and after the tumour volume reached 200 mm^3, the mice were randomized in groups and the treatments were initiated. mAb 3.19.3 10 mg/kg in saline was injected intraperitoneally, twice per week for 2 weeks. Zactima™ was treated peroral daily at doses ranging from 25 to 50 mg/kg in water containing 1% Tween80. The dimensions of each tumor were measured twice per week. The volume of the tumor was calculated as: Volume=Length×(Width)^2×0.5 (cm^3).

COc1cc2c(Oc3ccc4[nH]c(C)cc4c3F)ncnc2cc1OCCCN1CCCCC1 [4-(4-fluoro-2-methylindol-5-yloxy)-6-methoxy-7-(3-piperidinopropoxy)quinazoline, reference compound]
% tumor growth inhibition [1]: 69% | % inhibition [2]: 57%

COc1cc2c(Oc3ccc4[nH]c(C)cc4c3F)ncnc2cc1OCCCN1CCCC1 [AZD2171, reference compound]
Inhibition of Control Tumour Growth Day 28 [3]: 55%

COc1cc2c(Nc3ccc(Br)cc3F)ncnc2cc1OCC1CCN(C)CC1 [Zactima™, reference compound]
tumour inhibition [4]: 46%
